Holding throughout (experiment): NCI anticancer screen, dose series, 48 h
Assay [1] deals with SK-OV-3.
In assay [2] the test system is MDA-MB-435.
The subject of assay [3] is SK-MEL-2.
Assay [4] relates to T47D.
Assay [5] concerns DU-145.
In assay [6] the test system is SF-539.
Assay [7] relates to UO-31.
For assay [8], the system named is MDA-N.
Assay [9] deals with NCI/ADR-RES.
The subject of assay [10] is HCC 2998.
Assay [11] has as its system LOX IMVI.
Assay [12] relates to M14.
Assay [13] concerns SW-620.
Assay [14] deals with PC-3.
Assay [15] deals with SK-MEL-5.
Assay [16] relates to KM12.
In assay [17] the test system is SF-268.
The subject of assay [18] is HOP-92.
Assay [19] relates to COLO 205.

Molecules are shown by their SMILES.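 Step 1: Grow cells in 96-well plates. Step 2: Expose to compound for 48 hours at 5 concentrations. Step 3: Interpolate endpoints linearly; if unreached, use highest concentration. Here, GI50 denotes the concentration required for 50% inhibition of growth.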 Activity calls are given as the source filed them. No stated cut-off is given here; in the data, active = GI50 up to about 1.1 µM and inactive = higher.

As to `N/C(=N\O)N/N=C/c1cc(Br)cc(Br)c1O`, the GI50 in [1] is 7.14 µM (inactive); in assay [2], 9.48 µM (inactive); in assay [3], 8.04 µM (inactive); in [4], 1.75 µM (inactive); in [5], 3.19 µM (inactive); in assay [6], 4.49 µM (inactive). Moreover, the GI50 in [7] was 1.92 µM (inactive); in assay [8], 10.8 µM (inactive); in assay [9] it was 1.08 µM (active); in assay [10] it was 6.53 µM (inactive); in assay [11] it was 2.35 µM (inactive); in [12], 2.43 µM (inactive). Also, the GI50 in [13] is 8.95 µM (inactive); in assay [14], 5.74 µM (inactive); in [15], 6.89 µM (inactive); in assay [16], 5.08 µM (inactive); in assay [17], 1.75 µM (inactive); in assay [18] it was 2.86 µM (inactive). The GI50 in assay [19] is 13 µM (inactive).
For the compound `Cc1cc(NS(=O)(=O)c2ccc(NC(NC(=O)C(C(F)(F)F)C(F)(F)F)(C(F)(F)F)C(F)(F)F)cc2)no1`, the GI50 is 1.96 µM (inactive) in assay [1]; > 100 µM (inactive) in assay [2]; > 100 µM (inactive) in [3]; > 100 µM (inactive) in [4]; > 100 µM (inactive) in assay [5]; > 100 µM (inactive) in [6]. Also, the GI50 in assay [7] was > 100 µM (inactive); in assay [8], > 100 µM (inactive); in assay [9], > 100 µM (inactive); in [10] it was > 100 µM (inactive); in [11], > 100 µM (inactive); in [12] it was 58.7 µM (inactive). For the same compound, the GI50 in [13], in [14], in assay [15], in assay [16], in [17] and in assay [18] was > 100 µM (inactive) in each case. Also, the GI50 in [19] was > 100 µM (inactive).
Turning to `Cn1c(-c2cccs2)cc(-c2cccs2)c1-c1cccs1`, the GI50 in [1] is > 100 µM (inactive); in [2], 53.2 µM (inactive); in assay [3], 44 µM (inactive); in assay [4] it was 2.78 µM (inactive); in assay [5], > 100 µM (inactive); in assay [6] it was > 100 µM (inactive). Further, the GI50 in [7] was > 96.4 µM (inactive); in assay [8] it was 55.2 µM (inactive); in assay [9], > 100 µM (inactive); in [10] it was 37.8 µM (inactive); in assay [11], 35.8 µM (inactive); in [12] it was > 79.8 µM (inactive). Further, the GI50 in assay [13] is > 100 µM (inactive); in assay [14], > 100 µM (inactive); in [15], 14.5 µM (inactive); in assay [16], 35.7 µM (inactive); in [17], > 81.8 µM (inactive); in [18], > 100 µM (inactive). The GI50 in assay [19] is 8.95 µM (inactive).
Regarding `CCCCCCCCCCCCCCCCNc1ccn(C2CC(O)C(COC(c3ccccc3)(c3ccccc3)c3ccc(OC)cc3)O2)c(=O)n1` (stereo not drawn), the GI50 in assay [1], in assay [2], in assay [3], in assay [4], in assay [5] and in assay [6] was > 100 µM (inactive) in each case. In addition, the GI50 in assay [7] was 20.9 µM (inactive); in assay [8] it was > 100 µM (inactive); in assay [9], > 100 µM (inactive); in assay [10] it was 83.6 µM (inactive); in assay [11] it was > 100 µM (inactive); in assay [12], > 100 µM (inactive). Besides, the GI50 in assay [13], in assay [14], in assay [15], in assay [16], in assay [17] and in assay [18] was > 100 µM (inactive) in each case. Besides, the GI50 in assay [19] was > 100 µM (inactive).
As for `CCCCC1Cc2cc(OC)ccc2-c2n1c1cc(OC)ccc1[n+]2C.CCCCC1Cc2cc(OC)ccc2-c2n1c1ccc(OC)cc1[n+]2C` (stereo not drawn), the GI50 in assay [1] was 10 µM (inactive); in assay [2] it was 0.944 µM (active); in [3], 2.46 µM (inactive); in assay [4], 0.656 µM (active); in [5], 5.32 µM (inactive); in assay [6], 3.34 µM (inactive). The GI50 in assay [7] is 15.5 µM (inactive); in [8], 1.47 µM (inactive); in [9], > 100 µM (inactive); in assay [10], 0.703 µM (active); in assay [11], 2.87 µM (inactive); in assay [12], 3.76 µM (inactive). Further, the GI50 in [13] was 2.82 µM (inactive); in assay [14] it was 2.6 µM (inactive); in assay [15] it was 0.764 µM (active); in assay [16] it was 0.873 µM (active); in assay [17], 1.3 µM (inactive); in [18], 0.427 µM (active). In addition, the GI50 in assay [19] was 0.401 µM (active).
Regarding `Fc1ccc(C(OCCN2CCN(CCCCl)CC2)c2ccc(F)cc2)cc1`, the GI50 was 48.6 µM (inactive) in [1]; 17.1 µM (inactive) in [2]; 24.2 µM (inactive) in [3]; 22.3 µM (inactive) in assay [4]; 28.9 µM (inactive) in assay [5]; 18.7 µM (inactive) in [6]. The GI50 is 18.4 µM (inactive) in assay [7]; 20.7 µM (inactive) in assay [8]; 24.7 µM (inactive) in assay [9]; 18.5 µM (inactive) in assay [10]; 16.8 µM (inactive) in assay [11]; 18.9 µM (inactive) in assay [12]. Besides, the GI50 in [13] is 32.2 µM (inactive); in assay [14], 34.8 µM (inactive); in [15] it was 18 µM (inactive); in [16] it was 18.3 µM (inactive); in assay [17], 24.5 µM (inactive); in assay [18] it was 12.5 µM (inactive). The GI50 in assay [19] was 16.3 µM (inactive).
Regarding `CCc1nc(N)nc(N)c1-c1ccc(N2CCNCC2)c([N+](=O)[O-])c1`, the GI50 in [1] is 91.2 µM (inactive); in [2], 4.27 µM (inactive); in assay [3] it was 36.9 µM (inactive); in [4], 58.5 µM (inactive); in assay [5], 29.2 µM (inactive); in assay [6], 10.6 µM (inactive). Also, the GI50 in [7] was 78.7 µM (inactive); in assay [8], 4.85 µM (inactive); in assay [9] it was > 100 µM (inactive); in assay [10], 11.5 µM (inactive); in [11], 3.48 µM (inactive); in assay [12], 7.08 µM (inactive). Besides, the GI50 in assay [13] was 5.4 µM (inactive); in assay [14], 5.28 µM (inactive); in assay [15], 8.59 µM (inactive); in assay [16], 12 µM (inactive); in assay [17], 9.29 µM (inactive); in assay [18] it was 27.4 µM (inactive). Further, the GI50 in assay [19] is 15.3 µM (inactive).

The values above are taken from ChEMBL document CHEMBL1201862, “PubChem BioAssay data set” (2004).
